Where two headings read alike, the source gives them in different places.
Columns and labels:
[1] = Total Radical-trapping Anti-oxidant Parameter assay (TRAP assay); set-up: key to TRAP: active as an antioxidant (+); conditions: for TRAP: antioxidant activity; for activity in the TRAP assay: compared with curcumin
Method: This assay is also known as the Total radical-trapping anti-oxidant parameter assay (TRAP assay). For the TRAP assay (Re et al., Free Rad. Biol. […] The turquoise colored reaction was allowed to stabilize for 5 min and the absorbance monitored on a Perkin Elmer UV/Vis Lambda 2S. […] The following FIGS. 2A-2C) show the analogs active in the TRAP assay.

[2] = Ferric Reducing/Anti-oxidant Power assay (FRAP assay); set-up: key to FRAP: active as an antioxidant (+); conditions: for FRAP: antioxidant activity; for activity in the FRAP assay: compared with curcumin
Method: Anti-oxidant activity was also measured in the Ferric reducing/anti-oxidant power assay (FRAP assay) in which the analogs are reacted with a ferric tripyridyltriazine complex. For the FRAP assay (Benzie et al., Meth. Enzymol. 1999, 299, 15-27), the ferric complex was prepared at room temperature by reaction of ferric chloride (16.7 mM) and 2,4,6-tripyridyl-s-triazine (8.33 mM) in acetate buffer (0.25 M) to pH 3.6. The FRAP reagent was used immediately after preparation. […] The reaction was mixed by vortexing, allowed to stabilize for 5 min and the absorbance recorded on a Perkin Elmer UV/Vis Lambda 2S. […] The synthetic analog of α-tocopherol (vitamin E), Trolox, was used as a reference standard (10 μM in ethanol).
The second assay used, the FRAP assay, determines the analogs abilities to reduce a Fe(III) tripyridyltriazine complex to a Fe(II) tripyridyltriazine complex. The following FIGS. 3A-3C) show analogs active in the FRAP assay.

NF-κB = NF-κB luciferase reporter cellular assay (293T/NF-κB-luc, TNFα-stimulated); format: cell-based, human; conditions: for IC50: Homo sapiens, HEK-293T, inhibition of TNFα-induced NF-κB activation; for inhibition of the activation of NF-κB by TNFα (screen): 10 μM, compared with curcumin
Method: The cell line is derived from human 293T embryonic kidney cells expressing the large T antigen containing a chromosomal integration of a luciferase reporter construct regulated by 6 copies of the NF-κB response element (Panomics, Inc.). This stable clonal cell line is obtained by co-transfection of pNF-κB-luc and pTK-hyg containing plasmids followed by the addition of hygromycin (200 μg/ml) to maintain cell selection.
The cell line was grown in a humidified atmosphere at 37° C. in 5% CO2/95% air and maintained in Dulbecco's Modified Eagle's Medium (DMEM-high glucose containing 4 mM glutamine) containing fetal bovine serum (FBS, 10%), sodium pyruvate (1 mM), penicillin (100 units/ml), streptomycin (100 μg/ml) and hygromycin (100 μg/m) to maintain cell selection (Gibco/Invitrogen).
The 293T/NF-κB-luc cells were re-plated 24 hr prior to treatment, into 24-well cell culture plates in media without hygromycin, to prevent it from interfering with the assay. The cells were then allowed to grow and attach, to the wells, for 24 hr in a humidified atmosphere at 37° C. in 5% CO2/95% air. […] The cells then were placed again in a humidified atmosphere at 37° C. in 5% CO2/95% air for 7 hr. Plate wells were gently washed with PBS, pH 7.4, and lysed with passive lysis buffer (1×, 100 μl, Promega). The subsequent chemiluminescent lysates were analyzed with the Luciferase Assay System (Promega) utilizing a TD-20/20 luminometer. The relative light units (photons) were determined by the addition of firefly luciferase substrate (75 μl) to cell lysate (10 μl). The light units were then normalized to the amount of protein in the well (mg/ml) with BCA™ Protein Assay Kit (Pierce) and standardized to percent of control (TNFα).
This assay utilized a commercially available cell line (Panomics 293T-luc cellular assay) developed for screening inhibitors of NF-κB. This cell line is stably transfected with a luciferase reporter controlled by an NF-κB dependent promoter. The cell is stimulated with tumor necrosis factor alpha (TNFα) which activates NF-κB. NF-κB then binds to one of six promoter regions on the cell's DNA leading to the production of a luciferase enzyme. Luciferin is added to the cell lysates and the luciferase enzyme catalyzes a cleavage of luciferin leading to the emission of light.
This cell line was developed by Panomics for screening potential inhibitors of NF-κB. Cells are stimulated with TNF-α to express luciferase, whose activity is monitored in a chemiluminometer.
An NF-κB reporter stable cell line from human 293T embryonic kidney cells (293T/NFκB-luc) (Panomics) was grown in a humidified atmosphere at 37° C. in 5% CO2/95% air. The cells were maintained in Dulbecco's Modified Eagle's Medium (DMEM—high glucose containing 4 mM glutamine) supplemented with 10% fetal bovine serum (FBS), 1 mM sodium pyruvate, 100 units/ml penicillin, 100 μg/m streptomycin and 100 μg/ml hygromycin (Gibco/Invitrogen, Carlsbad, Calif.)) to maintain cell selection. One day prior to treatment, the 293T/NFκB-luc cells were plated into 24-well cell culture plates (Costar) at approximately 70% confluency in the above media without hygromycin. The following day cells were fed fresh media 1 hour prior to treatment. […] The cells were placed again in a humidified atmosphere at 37° C. in 5% CO2/95% air for 7 hours. Plate wells were gently washed with phosphate buffered saline, pH 7.4, and lysed with 1× passive lysis buffer (Promega). The subsequent lysates were analyzed with the Luciferase Assay System (Promega) utilizing a TD-20/20 luminometer (Turner Designs). The firefly luciferase relative light units were normalized to protein (mg/ml) with BCATM Protein Assay Kit (Pierce) and standardized to TNF-α control.

AP-1 = AP-1 luciferase reporter cellular assay (293/AP1-luc, PMA-stimulated); format: cell-based, human; conditions: for activity in the AP-1 cellular assay (screen): 15 μM, compared with curcumin; for IC50: Homo sapiens, inhibition of PMA-induced AP-1 activation, 293/AP1-luc cells, Table 10, read-out: AP-1 IC50
Method: This cell line is obtained by co-transfection of pAP1-luc and pTK-hyg containing plasmids followed by the addition of hygromycin (200 μg/ml) to maintain cell selection.
After 24 hr, the cells had reached approximately 60% confluency. […] Plate wells were gently washed with PBS, pH 7.4, and lysed with passive lysis buffer (1×, 100 μl, Promega). The subsequent chemiluminescent lysates were analyzed with the Luciferase Assay System (Promega) utilizing a TD-20/20 luminometer. The relative light units (photons) were determined by the addition of firefly luciferase substrate (75 μl) to cell lysate (10 μl). The light units were then normalized to the amount of protein in the well (mg/ml) with BCA™ Protein Assay Kit (Pierce) and standardized to percent of control (PMA).
This cell line is stably transfected with a luciferase reporter controlled by an AP-1 dependent promoter. The cell is stimulated with phorbol ester which activates AP-1. AP-1 then binds to one of three promoter regions on the cells DNA leading to the production of a luciferase enzyme. Luciferin is added to the cell lysates and the luciferase enzyme catalyzes a cleavage of luciferin leading to the emission of light.

[3] = 293T/NF-κB-luc cells, Table 5, read-out: IC50

IC50 (NF-κB; Table 10, read-out: NF-κB IC50) [µM]	activity in the AP-1 cellular assay (screen) (AP-1)	inhibition of the activation of NF-κB by TNFα (screen) (NF-κB)	SMILES	activity in the TRAP assay ([1]; 10 μM in ethanol)	further results
6.7	more active than curcumin	more active than curcumin	COc1cc(/C=C/C(=O)/C(C)=C(O)/C=C/c2ccc(O)c(OC)c2)ccc1O [6a]	–	TRAP ([1]; 10 μM in ethanol, Table 5): +; TRAP ([1]; Table 10): +; IC50 (AP-1): 6 µM; FRAP ([2]; 10 μM in ethanol, Table 5): +; FRAP ([2]; Table 10): +; IC50 (NF-κB; [3]): 6.8 µM
7.6	more active than curcumin	more active than curcumin	COc1cc(/C=C/C(=O)/C(Cc2ccccc2)=C(O)/C=C/c2ccc(O)c(OC)c2)ccc1O [9a]	–	TRAP ([1]; 10 μM in ethanol, Table 5): +; TRAP ([1]; Table 10): +; IC50 (AP-1): 5.3 µM; FRAP ([2]; 10 μM in ethanol, Table 5): +; FRAP ([2]; Table 10): +; IC50 (NF-κB; [3]): 7.6 µM
5.4	more active than curcumin	more active than curcumin	COc1cc(/C=C/C(=O)/C=C/c2ccc(OC(C)=O)c(OC)c2)ccc1OC(C)=O [20ag]	–	IC50 (AP-1): 8.3 µM; FRAP ([2]; 10 μM in ethanol, Table 5): +; FRAP ([2]; Table 10): +; IC50 (NF-κB; [3]): 5.4 µM
–	more active than curcumin	–	COc1ccccc1/C=C/C(=O)/C=C/c1ccccc1OC [20c]	–	–
–	more active than curcumin	–	COc1cccc(/C=C/C(=O)/C=C/c2cccc(OC)c2OC)c1OC [20d]	–	–
–	more active than curcumin	–	COc1cccc(OC)c1/C=C/C(=O)/C=C/c1c(OC)cccc1OC [20l]	–	–
6.4	more active than curcumin	more active than curcumin	COc1ccc(OC)c(/C=C/C(=O)/C=C/c2cc(OC)ccc2OC)c1 [20m]	–	IC50 (AP-1): 1.4 µM; IC50 (NF-κB; [3]): 6.4 µM

The remaining lines, values behind:

SMILES	IC50 (NF-κB; Table 10, read-out: NF-κB IC50) [µM]	activity in the AP-1 cellular assay (screen) (AP-1)	inhibition of the activation of NF-κB by TNFα (screen) (NF-κB)	activity in the TRAP assay ([1]; 10 μM in ethanol)	further results
COc1cc(/C=C/C(=O)/C=C(O)/C=C/c2ccc(O)c(OC)c2)ccc1O [3a]	8.2	–	–	–	TRAP ([1]; Table 10): +; FRAP ([2]; Table 10): +
COc1ccc(/C=C/C(=O)/C=C(O)/C=C/c2ccc(OC)c(O)c2)cc1O [3h]	–	–	–	more active than curcumin	–
COc1cc(CCC(=O)/C=C(\O)CCc2ccc(O)c(OC)c2)ccc1O [13a]	–	–	–	more active than curcumin	activity in the FRAP assay ([2]; 10 μM in ethanol): potent antioxidant activity
COc1cc(CCC(=O)C(C)=C(O)CCc2ccc(O)c(OC)c2)ccc1O [14a]	–	–	more active than curcumin	more active than curcumin	–
COc1cc(CCC(=O)C(Cc2ccccc2)=C(O)CCc2ccc(O)c(OC)c2)ccc1O [15a]	–	–	–	more active than curcumin	–
COc1cc(/C=C/C(=O)/C=C/c2ccc(O)c(OC)c2)ccc1O [20a]	–	–	more active than curcumin	–	–
O=C(/C=C/c1ccc(O)c(O)c1)/C=C/c1ccc(O)c(O)c1 [20af]	–	–	–	more active than curcumin	activity in the FRAP assay ([2]; 10 μM in ethanol): more active than curcumin

From patent US9187397B2 (STC.UNM, priority 2004, dated 2015)
